Experimental data as given in article PMC6539072, “Diclofenac-Derived Hybrids for Treatment of Actinic Keratosis and Squamous Cell Carcinoma” (Molecules, 2019).
“Also recorded” adds a separate entry of the source.

How the values were obtained:
[1] = system: EGF-stimulated HaCaT cells; experiment: Neutral Red cell viability assay on EGF-stimulated HaCaT cells (actinic keratosis model); type: cell-based, human; settings: for potency relative to diclofenac (native drugs): ratio of IC50 values on EGF-stimulated HaCaT
Protocol: (§1) The immortalized human keratinocyte (HaCaT) cells and human squamous carcinoma (A431) cells (Sigma-Aldrich, Milan, Italy) were cultured in RPMI 1640 (Euroclone, Milan, Italy) supplemented with 10% fetal bovine serum (FBS), 100 U/mL penicillin, and 100 μg/mL streptomycin (Euroclone) at 37 °C in a humidified atmosphere containing 5% CO2.
HaCaT cells under the proliferative stimulus of EGF were used as model of actinic keratosis (AK), a precancerous disease that can progress in cutaneous squamous cell carcinoma (cSCC), according to the critical role played by the EGFR/Fyn/Src/Erk pathway for promoting cSCC formation. Cells were stimulated with EGF at the concentration 5 ng/mL for whole time of treatment with test compounds (see below).
(§2) Both HaCaT (EGF-stimulated) and A431 cells were incubated for 72 h with the test compounds at concentrations in the range 0.1–100 μM.
(§3) Cell viability was measured using the Neutral Red (NR) Assay (N2889, Sigma-Aldrich, Darmstadt, Germany) as previously reported. HaCaT and A431 cell lines were seeded at a density of 5 × 10^4 cells/well in 10% FBS medium in a 96-well plate. After 24 h, test compounds, dissolved in DMSO, were diluted in sterile culture medium supplemented with EGF (HaCaT cells) or 1% FBS (A431 cells) and added into the well plate. […] Diclofenac, HT, T and hybrids 1–4 were tested. After 72 h from treatment, NR was added and cells incubated for 2 h. At the end of the incubation period, cells were washed with PBS and, then, incubated for 10 min with a NR solubilisation solution (1% acetic acid in 50% ethanol). The absorbance was measured at 540 nm using the Infinite M200 NanoQuant instrument (Tecan, Salzburg, Austria). Optical density values from vehicle-treated cells were considered as 100% cell viability.

[2] = system: A431 cells; experiment: Neutral Red cell viability assay on A431 squamous carcinoma cells; type: cell-based, human; settings: for IC50: neutral red, 0.1–100 μM, NR: not reached
Protocol: as §1, §2, §3

[3] = no reference given; cited from earlier work
[4] = In vitro cutaneous permeation through pig ear skin (Gummer-type diffusion cells); type: in vitro ADME; settings: measured as hybrid 1 in receiving phase; 24 h
Source text: Porcine ears skin, obtained from freshly sacrificed animals in a local slaughterhouse, was used as model. After cleaning with depurated water, full-thickness skin was removed with a scalpel from the cartilage of the outer region. The excised pig ear skin was carefully deprived of the adhering fat and subcutaneous tissue. Prior to the experiments, the pig hairs were abscised and the skin was gently washed. The skin with a thickness about 1.46 ± 0.06 mm was placed in the Gummer-type diffusion cells with the stratum corneum facing the donor compartment and an available diffusion area of […]. […]
The concentration of diclofenac and hybrid 1 in receiving fluids and in the skin samples was selectively determined by HPLC. […]
Linear regression analysis of pseudo steady state diffusion plots allowed calculation of the following parameters: steady-state flux (J, nmols/cm^2·h), given by Q/At, where Q is the amount of permeant diffusing across area A in time t; lag time (h), indicating the time taken by the drug to saturate the membrane and reach the receiving phase, calculated from the X-axis intercept values of the regression lines and the amount of drug permeated at the end of the experiment (Q24h, nmols).

[5] = Homo sapiens, EGF-stimulated HaCaT (5 ng/mL EGF), 72 h, neutral red, 0.1–100 μM, NR: not reached
[6] = Homo sapiens, A-431, A431, 72 h
[7] = EGF-stimulated HaCaT (5 ng/mL EGF), 72 h, neutral red, 0.1–100 μM, NR: not reached

Compound | IC50 [1, 5] [µM] | IC50 [2, 6] [µM] | other results
O=C(CCCOC(=O)Cc1ccccc1Nc1c(Cl)cccc1Cl)OCCc1ccc(O)cc1 [hybrid 4, 4-Hydroxyphenethyl 4-(2-(2-((2,6-dichlorophenyl)amino)phenyl)acetoxy)butanoate] | > 100 | > 100 | effect on cell viability (in words) ([1]; EGF-stimulated HaCaT, 72 h): antiproliferative effect lower than that of diclofenac; also recorded: not able to induce modification in cell viability; effect on cell viability (in words) ([2]; A431, 72 h): not able to induce modification in cell viability
3-Hydroxyphenethyl 2-(2-((2,6-dichlorophenyl)amino)phenyl)acetate [hybrid 2] |  |  | IC50 [1, 7]: 16.1 ± 1.15 µM; potency relative to diclofenac (native drugs) [1]: 4 fold; IC50 ([2]; A431, 72 h): 27.5 ± 1.24 µM
OCCc1ccc(O)c(O)c1 [HT, hydroxytyrosol, reference compound] | 72.3 ± 3.58 | > 100 | 
O=C(O)Cc1ccccc1Nc1c(Cl)cccc1Cl [diclofenac sodium] |  |  | partition coefficient n-octanol/water, log POW [3]: 4.98
O=C(Cc1ccccc1Nc1c(Cl)cccc1Cl)OCCc1ccc(O)c(O)c1 [hybrid 1, 3,4-Dihydroxyphenethyl 2-(2-((2,6-dichlorophenyl)amino)phenyl)acetate] | 3.71 ± 1.08 | 13.5 ± 2.49 | potency relative to diclofenac (native drugs) [1]: about 20 fold; IC50 in A431 relative to IC50 in EGF-stimulated HaCaT ([2]; A431 vs EGF-stimulated HaCaT): about 4 fold; Flux [4]: did not permeate across the skin; melting point: 123 to 125 °C
OCCc1ccc(O)cc1 [T, tyrosol, reference compound] | > 100 | > 100 | IC50 ± SEM [1, 7]: not reached
O=C(CCCOC(=O)Cc1ccccc1Nc1c(Cl)cccc1Cl)OCCc1ccc(O)c(O)c1 [hybrid 3, 3,4-Dihydroxyphenethyl 4-(2-(2-((2,6-dichlorophenyl)amino)phenyl)acetoxy)butanoate] | 17.8 ± 1.09 | 30.7 ± 1.33 | 
O=C(O)Cc1ccccc1Nc1c(Cl)cccc1Cl [diclofenac] | 67.1 ± 1.94 | 32 ± 1.05 | 
